Reference: publication PMC12920294, “Optimizing uPAR-targeting radiopeptides for improved tissue distribution: progress towards radionuclide therapy” (European Journal of Nuclear Medicine and Molecular Imaging, 2025)
Marks after values point to notes of the source that are not given here.

Key:
mouse serum albumin = target: T1, mouse serum albumin (Mus musculus, UniProt P07724); format: in vitro ADME
T1 construct: tissue Rockland Immunochemicals Inc., USA Lot: 32321; host or cells: mouse blood plasma
T1 sequence (P07724 25-608): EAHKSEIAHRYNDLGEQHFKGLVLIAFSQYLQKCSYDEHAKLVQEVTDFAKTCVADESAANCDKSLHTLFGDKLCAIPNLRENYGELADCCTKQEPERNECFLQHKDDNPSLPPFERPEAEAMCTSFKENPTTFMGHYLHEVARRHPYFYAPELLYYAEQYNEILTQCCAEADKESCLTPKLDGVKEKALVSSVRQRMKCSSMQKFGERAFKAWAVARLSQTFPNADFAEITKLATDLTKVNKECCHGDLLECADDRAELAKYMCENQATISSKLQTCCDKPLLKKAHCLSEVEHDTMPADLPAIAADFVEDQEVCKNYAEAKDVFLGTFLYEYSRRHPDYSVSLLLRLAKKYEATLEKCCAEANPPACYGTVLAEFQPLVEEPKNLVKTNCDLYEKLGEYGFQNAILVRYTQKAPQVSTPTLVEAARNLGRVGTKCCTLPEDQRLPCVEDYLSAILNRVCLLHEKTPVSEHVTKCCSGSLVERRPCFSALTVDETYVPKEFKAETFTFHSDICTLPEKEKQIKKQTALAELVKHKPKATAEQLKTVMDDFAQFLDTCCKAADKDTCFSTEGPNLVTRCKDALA
Method: (§1) The albumin-binding properties of the radiopeptides in mouse and human blood plasma were determined using an ultrafiltration assay with Amicon centrifugal filters (cut-off of 10 kDa; Merck Millipore) as previously reported (Supplementary Material). A fixed amount of the respective radiopeptide (~ 300 kBq, 15 µL, 6 pmol) was added to a defined volume (150 µL) of mouse and human blood plasma dilutions to obtain [mouse serum albumin]-to-[radiopeptide] molar concentration ratios of 0.01‒12,500 and [human serum albumin]-to-[radiopeptide] molar concentration ratios of 0.01‒20,000. The data were analyzed using a semi-logarithmic Hill plot with the maximum binding set as 100% using GraphPad Prism software (version 10.1.1). The half-maximum binding (B50 values) of each radiopeptide was expressed as relative values using the inverse ratios with the value of [^177Lu]Lu-uPAR-11 set as 1.0. […] The samples were incubated at 37 °C for 30 min. Ice-cold PBS (150 µL, pH 7.4) was added before loading the blood plasma samples on Amicon centrifugal filters (cut-off of 10 kDa; Merck Millipore) followed by centrifugation (14000 rcf, 4 °C, 30 min) to allow the separation of the plasma protein-bound from the unbound (free) fractions of each sample. The inserts of the filter devices were inverted and centrifuged at 200 rcf for 3 min to recover the protein-bound radiopeptide. The activity of the protein-bound fraction was measured using a γ-counter (Wallac Wizard 1480, PerkinElmer). The activity in the filtrate and filter unit was counted in the γ-counter and the counts were combined, assuming that the fraction retained in the filter membrane was not bound to proteins. The protein-bound fraction was expressed as percentage of the whole activity (i.e. plasma protein-bound activity, activity measured in the filtrate and activity measured in the filter (set as 100%)). The data were analyzed using a semi-logarithmic plot assuming a maximum binding of 100%. The Hill equation was fitted to the data points, and the half-maximum binding (B50) was determined based on the obtained binding curves using GraphPad Prism software (version 10.1.1). To quantitatively express and compare the albumin-binding properties of the radiopeptides, the relative albumin-binding affinity was expressed as the inverse half-maximal-binding (B50) of the respective radioligand to that of [^177Lu]Lu-uPAR-11, which was set as 1.0. The results were presented as the value obtained from the average curve from 3 independent experiments.

physchem = format: physicochemical; conditions: pH 7.4
Method: The ^177Lu-labeled peptides (50 MBq/nmol) were incubated in mouse or human blood plasma (10 MBq/200 µL) over an incubation period of 24 h at 37 °C. Aliquots and control samples of the radiopeptides diluted in saline were analyzed after 1 h, 4 h and 24 h using thin layer chromatography (TLC) as previously reported (Supplementary Material). The distribution coefficients (logD values) of the ^177Lu-labeled peptides (50 MBq/nmol) were determined using a shake-flask method according to a previously published procedure (Supplementary Material). Methods: The radiopeptides (50 MBq/nmol) were diluted in phosphate buffered saline (PBS) pH 7.4 to obtain an activity concentration of 10 MBq/500 µL. A sample of this radiopeptide solution (~0.5 MBq, 25 µL, 0.01 nmol) was added to a mixture of PBS pH 7.4 (1475 µL) and n-octanol (1500 µL). The vials were vortexed vigorously for 1 min followed by centrifugation (560 rcf, 25°C, 6 min) for phase separation. Aliquots were taken from each phase and measured in a γ-counter (Wallac Wizard 1480, PerkinElmer). The distribution coefficients were calculated as the logarithmic value of the ratio of counts per minute (cpm) measured in the n-octanol phase relative to the cpm measured in the PBS phase. The results were listed as average ± SD of the data obtained from 3 independent experiments, each performed with five replicates.

human serum albumin = human serum albumin (Homo sapiens, UniProt P02768); format: in vitro ADME; design: tissue Stiftung Blutspende SRK Aargau-Solothurn, Switzerland; host or cells: human blood plasma
human serum albumin, sequence (P02768 25-609): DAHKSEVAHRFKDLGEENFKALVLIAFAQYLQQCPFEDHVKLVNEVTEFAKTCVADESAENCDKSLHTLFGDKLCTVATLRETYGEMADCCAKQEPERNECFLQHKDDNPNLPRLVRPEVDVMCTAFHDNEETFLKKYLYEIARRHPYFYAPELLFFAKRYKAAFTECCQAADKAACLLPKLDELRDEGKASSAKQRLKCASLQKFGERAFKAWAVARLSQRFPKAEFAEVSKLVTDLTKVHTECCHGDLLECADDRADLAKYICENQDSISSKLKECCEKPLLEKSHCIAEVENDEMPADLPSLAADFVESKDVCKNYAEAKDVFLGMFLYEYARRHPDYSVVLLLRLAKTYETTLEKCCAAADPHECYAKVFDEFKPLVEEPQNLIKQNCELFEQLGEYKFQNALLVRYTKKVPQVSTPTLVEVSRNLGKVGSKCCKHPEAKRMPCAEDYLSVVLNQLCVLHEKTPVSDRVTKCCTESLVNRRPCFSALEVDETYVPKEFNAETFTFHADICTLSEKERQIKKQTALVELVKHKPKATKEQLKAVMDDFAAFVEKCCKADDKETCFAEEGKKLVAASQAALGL
Method: as §1

human uPAR = target: T2, human uPAR (Homo sapiens, UniProt Q03405); assay: uPAR-binding affinity, saturation binding on HEK-uPAR cells; conditions: 4 °C
T2 construct: host or cells: HEK cells transfected with human uPAR (HEK-uPAR)
T2 sequence (Q03405 23-335): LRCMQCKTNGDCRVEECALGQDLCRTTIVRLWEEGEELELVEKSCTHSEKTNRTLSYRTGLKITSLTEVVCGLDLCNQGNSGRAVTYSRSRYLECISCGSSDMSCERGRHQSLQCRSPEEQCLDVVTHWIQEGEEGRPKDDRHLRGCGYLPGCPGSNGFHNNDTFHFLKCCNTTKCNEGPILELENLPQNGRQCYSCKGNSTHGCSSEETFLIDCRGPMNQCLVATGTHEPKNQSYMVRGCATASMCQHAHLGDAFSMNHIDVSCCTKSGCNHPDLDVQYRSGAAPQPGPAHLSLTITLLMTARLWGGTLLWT
Method: To determine the uPAR-binding affinity of the radiopeptides, saturation binding experiments were performed according to a previously published procedure using HEK-uPAR cells in 48-well plates (Supplementary Material). The assay was performed on ice (at 4 °C) to prevent target internalization upon binding of the radiopeptides. The cells were incubated with the radiopeptides in the presence or absence of excess AE105 (40 µM) together with the respective radiopeptides at concentrations ranging between 1 nM and 1600 nM. After removal of the supernatant, the HEK-uPAR cells were rinsed and lysed to be measured using a γ-counter (Wallac Wizard 1480, PerkinElmer). The KD values were determined by plotting the specific binding (values of cell samples incubated without AE105 minus the respective values of samples incubated with AE105) against the molar concentration of the added peptide. A nonlinear regression analysis was performed using GraphPad Prism software (version 10.1.1). The results are reported as average of KD values ± SD of n = 3 independent experiments. Methods: HEK-uPAR cells were seeded in poly-D-lysine-coated 48-well plates (0.25 × 10^6 in 0.5 mL per well) using DMEM culture medium with supplements. The cells were incubated at 37 °C and 5% CO2 overnight to allow adhesion and growth. The well plates with HEK-uPAR cells were placed on ice for the entire experiment to prevent internalization of the radiopeptides. After removal of the medium, the HEK-uPAR cells were rinsed with cold PBS (0.5 mL, pH 7.4) followed by the addition of DMEM culture medium without supplements (450 µL/well) in the presence or absence of AE105 (final concentration 40 µM) as a receptor blocking agent. The cells were incubated for 30 min on ice. The respective radiopeptides (5 MBq/nmol) were diluted in PBS at peptide concentrations 10‒16000 nM. A volume of 50 µL from each dilution was added to each well to obtain peptide concentrations in the range of […]. The assay was performed at 4 °C on ice, to prevent internalization of the radiopeptides. The radiopeptides were incubated on cells for 1 h on a shaker before rinsing twice with PBS (0.5 mL, pH 7.4). Increasing ligand concentrations were used to approximate saturation of the binding sites (Bmax value) at equilibrium. Ligand depletion effects of the ligand concentration in the supernatant of the cell samples were not taken into account. The cells were lysed using an aqueous NaOH solution (1 M, 600 µL) and the lysates were transferred to radioimmunoassay tubes for counting the activity in a γ-counter (Wallac Wizard 1480, PerkinElmer). The KD values were determined by plotting the specific binding (total binding minus unspecific binding) against the molar concentration of the added radiopeptide using GraphPad Prism software (version 10.1.1). The results were then expressed as average ± SD of n = 3 independent experiments.

Row | Albumin-binding affinity relative to [177Lu]Lu-uPAR-11 (mouse serum albumin) | Albumin-binding properties, relative values (inverse B50 ratio) (mouse serum albumin) | logD (physchem) | Inverse relative albumin-binding affinity (human serum albumin) | Kd (human uPAR) [nM] | Weaker affinity to mouse albumin than [177Lu]Lu-uPAR-02 (mouse serum albumin) [fold] | Weaker affinity to human albumin than [177Lu]Lu-uPAR-02 (human serum albumin) [fold] | Structure (SMILES)
1 | 0.50‒0.77 | 0.77 | -0.03 ± 0.01 | 0.77 | 42 ± 3 | – | – | Cc1ccc(CCCC(=O)NCCOCCOCCOCCC(=O)NCCCC[C@H](NC(=O)CN2CCN(CC(=O)O)CCN(CC(=O)O)CCN(CC(=O)O)CC2)C(=O)N[C@@H](CC(=O)O)C(=O)N[C@@H](CC2CCCCC2)C(=O)N[C@@H](Cc2ccccc2)C(=O)N[C@H](CO)C(=O)N[C@H](CCCNC(=N)N)C(=O)N[C@@H](Cc2ccc(O)cc2)C(=O)N[C@@H](CC(C)C)C(=O)N[C@@H](Cc2c[nH]c3ccccc23)C(=O)N[C@@H](CO)C(N)=O)cc1 [[^177Lu]Lu-uPAR-15, metal not drawn]
2 | 0.50‒0.77 | 0.66 | -0.13 ± 0.08 | 0.50 | 37 ± 7 | – | – | Cc1ccc(CCCC(=O)NCCOCCOCCOCCOCCC(=O)NC[C@H](NC(=O)CN2CCN(CC(=O)O)CCN(CC(=O)O)CCN(CC(=O)O)CC2)C(=O)N[C@@H](CC(=O)O)C(=O)N[C@@H](CC2CCCCC2)C(=O)N[C@@H](Cc2ccccc2)C(=O)N[C@H](CO)C(=O)N[C@H](CCCNC(=N)N)C(=O)N[C@@H](Cc2ccc(O)cc2)C(=O)N[C@@H](CC(C)C)C(=O)N[C@@H](Cc2c[nH]c3ccccc23)C(=O)N[C@@H](CO)C(N)=O)cc1 [[^177Lu]Lu-uPAR-14, metal not drawn]
3 | 0.50‒0.77 | 0.77 | -1.56 ± 0.03 | 0.65 | 31 ± 6 | – | – | Cc1ccc(CCCC(=O)NCCOCCOCCOCCOCCC(=O)NCCCC[C@H](NC(=O)CC[C@H](C(=O)O)N2CCN(CC(=O)O)CCN(CC(=O)O)CCN(CC(=O)O)CC2)C(=O)N[C@@H](CC(=O)O)C(=O)N[C@@H](CC2CCCCC2)C(=O)N[C@@H](Cc2ccccc2)C(=O)N[C@H](CO)C(=O)N[C@H](CCCNC(=N)N)C(=O)N[C@@H](Cc2ccc(O)cc2)C(=O)N[C@@H](CC(C)C)C(=O)N[C@@H](Cc2c[nH]c3ccccc23)C(=O)N[C@@H](CO)C(N)=O)cc1 [[^177Lu]Lu-uPAR-17, metal not drawn]
4 | – | – | -0.26 ± 0.09 | 1.00^b | 37 ± 11 | 3.2 | 4.6 | Cc1ccc(CCCC(=O)NCCOCCOCCOCCOCCC(=O)NCCCC[C@H](NC(=O)CN2CCN(CC(=O)O)CCN(CC(=O)O)CCN(CC(=O)O)CC2)C(=O)N[C@@H](CC(=O)O)C(=O)N[C@@H](CC2CCCCC2)C(=O)N[C@@H](Cc2ccccc2)C(=O)N[C@H](CO)C(=O)N[C@H](CCCNC(=N)N)C(=O)N[C@@H](Cc2ccc(O)cc2)C(=O)N[C@@H](CC(C)C)C(=O)N[C@@H](Cc2c[nH]c3ccccc23)C(=O)N[C@@H](CO)C(N)=O)cc1 [[^177Lu]Lu-uPAR-11, metal not drawn]
5 | – | 0.66 | -0.5 ± 0.07 | 1.05 | 33 ± 4 | – | – | Cc1ccc(CCCC(=O)NCCOCCOCCOCCOCCOCCC(=O)NCCCC[C@H](NC(=O)CN2CCN(CC(=O)O)CCN(CC(=O)O)CCN(CC(=O)O)CC2)C(=O)N[C@@H](CC(=O)O)C(=O)N[C@@H](CC2CCCCC2)C(=O)N[C@@H](Cc2ccccc2)C(=O)N[C@H](CO)C(=O)N[C@H](CCCNC(=N)N)C(=O)N[C@@H](Cc2ccc(O)cc2)C(=O)N[C@@H](CC(C)C)C(=O)N[C@@H](Cc2c[nH]c3ccccc23)C(=O)N[C@@H](CO)C(N)=O)cc1 [[^177Lu]Lu-uPAR-18, metal not drawn]
6 | – | – | 0.96 ± 0.15 | – | 38 ± 9 | – | – | Cc1ccc(CCCC(=O)NCCCCCCCC(=O)NCCCC[C@H](NC(=O)CN2CCN(CC(=O)O)CCN(CC(=O)O)CCN(CC(=O)O)CC2)C(=O)N[C@@H](CC(=O)O)C(=O)N[C@@H](CC2CCCCC2)C(=O)N[C@@H](Cc2ccccc2)C(=O)N[C@H](CO)C(=O)N[C@H](CCCNC(=N)N)C(=O)N[C@@H](Cc2ccc(O)cc2)C(=O)N[C@@H](CC(C)C)C(=O)N[C@@H](Cc2c[nH]c3ccccc23)C(=O)N[C@@H](CO)C(N)=O)cc1 [[^177Lu]Lu-uPAR-12, metal not drawn]
